According to paper PMC8839189, “Bis-Amiridines as Acetylcholinesterase and Butyrylcholinesterase Inhibitors: N-Functionalization Determines the Multitarget Anti-Alzheimer’s Activity Profile” (Molecules, 2022):
Values joined by “and” are separate entries in the source; they are usually repeats but may differ in a detail not shown here. Identical values can stand only once. Like-named read-outs stand apart in the source and are kept apart here.

Tests used:
[1] = ABTS radical cation scavenging activity assay; conditions: 1 h incubation; for ABTS•+-Scavenging Activity, TEAC: Trolox equivalent antioxidant capacity; for IC50: ABTS•+ 100 μM
Procedure: Radical scavenging activity of the compounds was assessed using the ABTS radical cation (ABTS^•+) decolorization assay with modifications, described in detail in [30, 32]. ABTS (2,2′-azino-bis-(3-ethylbenzothiazoline-6-sulfonic acid)) was purchased from Tokyo Chemical Industry Co., Ltd. (Tokyo, Japan), potassium persulfate (dipotassium peroxodisulfate), Trolox (6-hydroxy-2,5,7,8-tetramethylchroman-2-carboxylic acid), HPLC-grade ethanol, and DMSO were obtained from Sigma-Aldrich. All tested compounds were dissolved in DMSO.
The reaction was monitored for 1 h with an interval of 1–10 min. Data are given for 1 h of incubation of compounds with ABTS^•+ (100 μM final concentration). The reduction in absorbance was measured spectrophotometrically at 734 nm using xMark UV/VIS microplate spectrophotometer (Bio-Rad, Hercules, CA, USA). Ethanol blanks were run in each assay. Values were obtained from three replicates of each sample and three independent experiments. Standard antioxidant Trolox was used as a reference compound. Trolox equivalent antioxidant capacity (TEAC) values were determined as the ratio between the slopes obtained from the linear correlation of the ABTS radical absorbance with the concentrations of tested compounds and Trolox.

porcine liver CES = test: CES inhibition, 4-NPA substrate; format: biochemical; conditions: compound concentration 20 µM
equine serum BChE = molecular target: T1, equine serum BChE (Equus caballus, UniProt P81908); test: biochemical; conditions: n = 3
T1 construct: we used human erythrocyte AChE, equine serum BChE, and porcine liver CES; purchased Sigma-Aldrich; host or cells: equine serum
T1 sequence (P81908 whole entry): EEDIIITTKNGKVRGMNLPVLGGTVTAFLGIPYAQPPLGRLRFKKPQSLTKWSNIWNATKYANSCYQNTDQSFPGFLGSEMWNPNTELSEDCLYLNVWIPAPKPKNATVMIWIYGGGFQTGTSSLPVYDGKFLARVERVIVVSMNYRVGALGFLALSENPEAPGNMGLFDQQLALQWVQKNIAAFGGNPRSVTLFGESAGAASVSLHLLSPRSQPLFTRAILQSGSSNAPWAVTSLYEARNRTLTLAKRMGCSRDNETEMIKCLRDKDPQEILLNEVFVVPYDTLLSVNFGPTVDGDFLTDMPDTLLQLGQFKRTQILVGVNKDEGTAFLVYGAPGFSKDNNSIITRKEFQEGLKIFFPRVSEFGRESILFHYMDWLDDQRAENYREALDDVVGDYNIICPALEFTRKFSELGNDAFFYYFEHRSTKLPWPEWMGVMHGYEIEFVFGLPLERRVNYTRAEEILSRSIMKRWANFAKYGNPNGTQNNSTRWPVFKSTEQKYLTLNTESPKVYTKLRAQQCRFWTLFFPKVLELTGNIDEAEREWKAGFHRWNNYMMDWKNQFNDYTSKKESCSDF

AChE = molecular target: T2, AChE (Homo sapiens, UniProt P22303); test: Kinetic study of AChE inhibition (Lineweaver-Burk); format: biochemical; conditions: for type of AChE inhibition: Lineweaver–Burk plots; for Ki: read-out: Ki, the competitive component, AChE
T2 construct: we used human erythrocyte AChE, equine serum BChE, and porcine liver CES; purchased Sigma-Aldrich; host or cells: human erythrocytes
T2 sequence (P22303 other isoform, or with tags, fused parts or gaps): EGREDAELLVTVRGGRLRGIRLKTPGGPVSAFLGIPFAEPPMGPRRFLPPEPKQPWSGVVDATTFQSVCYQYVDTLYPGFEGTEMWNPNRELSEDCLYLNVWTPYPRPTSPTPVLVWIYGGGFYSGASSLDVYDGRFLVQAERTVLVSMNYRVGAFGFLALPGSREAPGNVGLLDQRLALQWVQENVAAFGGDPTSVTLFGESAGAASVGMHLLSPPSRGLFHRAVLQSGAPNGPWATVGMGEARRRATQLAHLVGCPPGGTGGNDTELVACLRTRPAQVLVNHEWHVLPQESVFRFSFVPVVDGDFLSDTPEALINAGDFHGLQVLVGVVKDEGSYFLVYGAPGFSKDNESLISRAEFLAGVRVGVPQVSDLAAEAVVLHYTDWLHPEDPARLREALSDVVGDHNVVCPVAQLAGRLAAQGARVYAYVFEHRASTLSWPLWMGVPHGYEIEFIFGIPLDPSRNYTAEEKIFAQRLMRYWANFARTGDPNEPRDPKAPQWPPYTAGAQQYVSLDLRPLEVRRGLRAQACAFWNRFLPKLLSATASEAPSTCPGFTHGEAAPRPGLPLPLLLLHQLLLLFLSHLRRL
Procedure: (§1) We assessed the mechanisms of AChE and BChE inhibition by performing a thorough analysis of enzyme kinetics. After a 5 min incubation at 25 °C (for temperature equilibration) with three increasing concentrations of inhibitor and six decreasing substrate concentrations, the residual enzyme activity was measured as described above for enzymatic assays.

BChE = molecular target: T3, BChE (Equus caballus, UniProt P81908); test: Kinetic study of BChE inhibition (Lineweaver-Burk); format: biochemical; conditions: for type of BChE inhibition: Lineweaver–Burk plots; for Ki: competitive component; for αKi, BChE: non-competitive component
T3 construct: we used human erythrocyte AChE, equine serum BChE, and porcine liver CES; purchased Sigma-Aldrich; host or cells: equine serum
T3 sequence (P81908 whole entry): as the sequence (P81908 whole entry) above
Procedure: as §1

EeAChE PAS = molecular target: T4, EeAChE PAS (Electrophorus electricus, UniProt O42275); test: Propidium iodide displacement from the PAS of EeAChE; format: binding, Electric eel; conditions: compound concentration 20 µM
T4 construct: purchased Sigma-Aldrich type VI-S
T4 sequence (O42275 24-633): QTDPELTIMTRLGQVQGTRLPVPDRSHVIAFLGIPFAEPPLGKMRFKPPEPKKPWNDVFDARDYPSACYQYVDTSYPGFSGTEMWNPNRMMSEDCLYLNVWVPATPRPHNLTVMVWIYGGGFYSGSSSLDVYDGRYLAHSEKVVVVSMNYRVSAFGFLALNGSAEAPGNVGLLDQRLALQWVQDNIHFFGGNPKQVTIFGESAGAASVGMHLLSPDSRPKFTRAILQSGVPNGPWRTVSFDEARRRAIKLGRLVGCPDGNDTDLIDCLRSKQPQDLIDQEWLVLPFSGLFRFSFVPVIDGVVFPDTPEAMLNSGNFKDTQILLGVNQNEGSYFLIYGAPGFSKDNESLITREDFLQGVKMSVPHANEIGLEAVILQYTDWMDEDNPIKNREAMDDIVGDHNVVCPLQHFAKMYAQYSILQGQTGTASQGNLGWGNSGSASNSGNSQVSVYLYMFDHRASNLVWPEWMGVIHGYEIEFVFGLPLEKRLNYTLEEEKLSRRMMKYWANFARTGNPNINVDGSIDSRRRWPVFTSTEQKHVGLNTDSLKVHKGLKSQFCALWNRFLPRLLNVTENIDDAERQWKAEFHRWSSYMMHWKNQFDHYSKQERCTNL
Procedure: The enzyme was Electric eel AChE (EeAChE type VI-S, lyophilized powder, Sigma-Aldrich). We selected this source of AChE for consistency with our other reports and because of the purity, specific activity, and lower cost compared to human AChE.
The assay is based on the high level of fluorescence intensity of propidium iodide bound with AChE decreasing in the presence of test compounds that competitively displace propidium iodide from the AChE PAS [25, 27]. Specificially, EeAChE ([…] final concentration) is incubated with the test compound (20 μM in 1 mM Tris-HCl buffer pH 8.0, 25 °C, for 15 min). Propidium iodide (final concentration 8 μM) is then added for a further 15-min incubation and the fluorescence spectrum is taken (530 nm (excitation) and 600 nm (emission)). The same concentration of propidium iodide in the Tris-HCI buffer was used as the blank. Triplicate determinations were recorded from a FLUOStar Optima microplate reader and results calculated via the following equation:% Displacement = 100 − (IFAChE+ Propidium + inhibitor/IFAChE + Propidium) × 100(1) where IFAChE + Propidium = fluorescence intensity of propidium iodide associated with AChE in the absence of the test compound (taken as 100%), and IFAChE + Propidium + inhibitor = fluorescence intensity of propidium iodide associated with AChE in the presence of the test compound.

human erythrocyte AChE [2] = molecular target: T5, human erythrocyte AChE (Homo sapiens, UniProt P22303); test: biochemical
T5 sequence (P22303 other isoform, or with tags, fused parts or gaps): as the sequence (P22303 other isoform, or with tags, fused parts or gaps) above

[3] = Ferric reducing antioxidant power (FRAP) assay; set-up: key: ratio of Trolox to test compound concentration giving same FRAP effect; conditions: Trolox equivalents; compound concentration 20 µM
Procedure: The ferric reducing antioxidant power (FRAP) assay proposed by Benzie and Strain [106, 107] was modified to be performed in 96-well microplates, as described in detail in [32]. The FRAP reagent contained 2.5 mL of 10 mM TPTZ (2,4,6-tris(2-pyridyl)-s-triazine, Sigma-Aldrich) solution in 40 mM HCl, 2.5 mL of 20 mM FeCl3 (Sigma-Aldrich) in distilled water and 25 mL of 0.3 M acetate buffer (pH 3.6). Aliquots of 10 µL of the tested compound (compounds 3, 5 or reference substance) dissolved in DMSO (0.5 mM) were placed in quadruplicate. Absorbance was measured at the wavelength of 593 nm after 60-min incubation at 37 °C. In each case, Trolox was used as a reference compound to obtain the standard curve and value was calculated with respect to the activity of Trolox and expressed as Trolox equivalents (TE)—the values calculated as the ratio of the concentrations of Trolox and the test compound, resulting in the same effect on ferric reducing activity.

β-amyloid (1–42) (Aβ42) = β-amyloid (1–42) (Aβ42) (Homo sapiens, UniProt P05067); test: Inhibition of Aβ42 self-aggregation, Thioflavin T fluorescence; format: biochemical; conditions: Aβ42 50 µM, compound 100 µM
Chain of β-amyloid (1–42) (Aβ42) (P05067 672-713): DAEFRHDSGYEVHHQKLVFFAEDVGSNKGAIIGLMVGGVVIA
Procedure: The inhibitory effect of the test compounds toward Aβ42 self-aggregation was determined using the Thioflavin T (ThT) fluorescence method with minor modifications. […] Therefore, the decrease in ThT fluorescence correlates with the activity of studied compounds to inhibit the formation of amyloid aggregates.
A total of 1 mg of lyophilized HFIP-pretreated Aβ42 from rPeptide (Watkinsville, GA, USA) was dissolved in DMSO to obtain a stable initial solution ([Aβ42] = 500 μM), then it was aliquoted and stored at −20 °C.
Then, the samples were incubated for 24 h at 37 °C without stirring in the absence (base level of Aβ42 self-aggregation, control) or presence of the test compounds. Myricetin and propidium iodide were used as references (positive controls). All compounds were used at a concentration of 100 µM. […] Analyses were performed with a FLUOStar Optima microplate reader (LabTech, Ortenberg, Germany). […] Each assay was run in triplicate.

human erythrocyte AChE [4] = molecular target: T5, human erythrocyte AChE; conditions: 5d (m = 5) relative to 5a (m = 2)
[5] = mean ± SEM, read-out: Equine Serum BChE, IC50

Compound	ABTS•+-Scavenging Activity, TEAC [1]	Porcine Liver CES, (%) inhibition (porcine liver CES)	IC50 (equine serum BChE; [5])	αKi, the non-competitive component, AChE (AChE)	type of AChE inhibition (AChE)	Ki (AChE)	type of BChE inhibition (BChE)	Ki (BChE)	αKi, BChE (BChE)	Displacement of Propidium from EeAChE PAS (EeAChE PAS)	IC50 [1]	IC50 (human erythrocyte AChE [2])	FRAP, TE [3]	IC50 (equine serum BChE; MEAN ± SEM, read-out: IC50 for BChE inhibition (Figure S25))	inhibition at 100 µM (β-amyloid (1–42) (Aβ42))	enhancement of anti-AChE activity, fold (human erythrocyte AChE [4])	Inhibition of Aβ42 Self-Aggregation (β-amyloid (1–42) (Aβ42))
Nc1c2c(nc3c1CCC3)CCCC2 [Amiridine]	0.04 ± 0.003																
O=[N+]([O-])c1ccc(OP(=O)(O)Oc2ccc([N+](=O)[O-])cc2)cc1 [BNPP, bis-4-nitrophenyl phosphate, reference compound]		99.1 ± 0.93 ^3%															
O=C(CNCCNCC(=O)Nc1c2c(nc3c1CCC3)CCCC2)Nc1c2c(nc3c1CCC3)CCCC2 [Compound 3a]	0.10 ± 0.004	4.8 ± 0.4%	0.11 ± 0.004 µM	2.62 ± 0.13 µM	mixed-type inhibition	0.772 ± 0.047 µM	mixed-type inhibition	0.0578 ± 0.0025 µM	0.189 ± 0.007 µM	14.4 ± 1.2%	~180 µM	1.64 ± 0.08 µM					
O=C(CNCCCNCC(=O)Nc1c2c(nc3c1CCC3)CCCC2)Nc1c2c(nc3c1CCC3)CCCC2 [Compound 3b]	0.05 ± 0.003	4.4 ± 0.5%	0.128 ± 0.002 µM							14.7 ± 1.2%	> 200 µM	2.91 ± 0.74 µM	0.05 ± 0.01				
O=C(CNCCCCNCC(=O)Nc1c2c(nc3c1CCC3)CCCC2)Nc1c2c(nc3c1CCC3)CCCC2 [Compound 3c]	0.10 ± 0.005	0.8 ± 0.2%	0.067 ± 0.001 µM							17.7 ± 1.4%	~200 µM	1.46 ± 0.03 µM		0.0696 µM			
O=C(CNCCCCCCNCC(=O)Nc1c2c(nc3c1CCC3)CCCC2)Nc1c2c(nc3c1CCC3)CCCC2 [Compound 3d]		6.0 ± 0.6%	1.11 ± 0.04 µM							11.2 ± 0.8%		1.39 ± 0.1 µM					
O=C(CNCCCCCCCCNCC(=O)Nc1c2c(nc3c1CCC3)CCCC2)Nc1c2c(nc3c1CCC3)CCCC2 [Compound 3e]	0.04 ± 0.002	5.1 ± 0.9%	6.65 ± 0.5 µM							13.2 ± 1.0%	> 200 µM	11.7 ± 1.1 µM	0.05 ± 0.01				
S=C(NCCNC(=S)Nc1c2c(nc3c1CCC3)CCCC2)Nc1c2c(nc3c1CCC3)CCCC2 [Compound 5a, 2,2′-Ethane-1,2-diylbis[N-(2,3,5,6,7,8-hexahydro-1H-cyclopenta[b]quinolin-9-yl)(thiourea)]]	2.1 ± 0.07	4.3 ± 0.2%	4.08 ± 0.23 µM							7.6 ± 0.6%	7.6 ± 0.4 µM	96 ± 3.7 µM	0.52 ± 0.04		2.9 ± 0.2%		
S=C(NCCCNC(=S)Nc1c2c(nc3c1CCC3)CCCC2)Nc1c2c(nc3c1CCC3)CCCC2 [Compound 5b]	1.9 ± 0.08	4.2 ± 0.5%	0.689 ± 0.025 µM							9.3 ± 0.8%	9.9 ± 0.5 µM	10.9 ± 1 µM	0.50 ± 0.03		1.6 ± 0.1%		
S=C(NCCCCNC(=S)Nc1c2c(nc3c1CCC3)CCCC2)Nc1c2c(nc3c1CCC3)CCCC2 [Compound 5c]	1.8 ± 0.05	9.6 ± 0.8%	0.802 ± 0.081 µM							10.0 ± 0.8%	9.7 ± 0.6 µM	7.53 ± 0.59 µM	0.35 ± 0.02		17.2 ± 1.5%		
S=C(NCCCCCNC(=S)Nc1c2c(nc3c1CCC3)CCCC2)Nc1c2c(nc3c1CCC3)CCCC2 [Compound 5d]	1.6 ± 0.06	12.8 ± 1.1%	0.76 µM and 0.758 µM	7.75 ± 0.11 µM	mixed-type inhibition	1.18 ± 0.08 µM	mixed-type inhibition	0.34 ± 0.012 µM	1.85 ± 0.06 µM	11.2 ± 1.0%	10.9 ± 0.7 µM	4.01 ± 0.13 µM	0.45 ± 0.03		12.8 ± 1.1%	24 fold	
S=C(NCCCCCCNC(=S)Nc1c2c(nc3c1CCC3)CCCC2)Nc1c2c(nc3c1CCC3)CCCC2 [Compound 5e]	1.5 ± 0.07	10.3 ± 1.0%	0.769 ± 0.02 µM							11.1 ± 0.9%	10.9 ± 0.7 µM	4.08 ± 0.46 µM	0.49 ± 0.01		14.3 ± 1.1%		
S=C(NCCCCCCCNC(=S)Nc1c2c(nc3c1CCC3)CCCC2)Nc1c2c(nc3c1CCC3)CCCC2 [Compound 5f]	1.2 ± 0.05	5.8 ± 0.3%	1.18 ± 0.08 µM							2.5 ± 0.2%	12.4 ± 0.8 µM	6.28 ± 0.46 µM	0.55 ± 0.01		3.7 ± 0.3%		
S=C(NCCCCCCCCNC(=S)Nc1c2c(nc3c1CCC3)CCCC2)Nc1c2c(nc3c1CCC3)CCCC2 [Compound 5g]	1.5 ± 0.07	15.9 ± 1.5%	1.45 ± 0.09 µM							2.2 ± 0.2%	10.8 ± 0.6 µM	26.6 ± 0.6 µM	0.85 ± 0.03		5.2 ± 0.4%		
CC[N+](C)(CC)CCC[n+]1c(-c2ccccc2)c2cc(N)ccc2c2ccc(N)cc21.[I-].[I-] [Propidium iodide, reference compound]																	90.7 ± 7.1%
Cc1c(C)c2c(c(C)c1O)CCC(C)(C(=O)O)O2 (stereo not shown) [Trolox, 6-hydroxy-2,5,7,8-tetramethylchroman-2-carboxylic acid, reference compound]	1.0										20 µM and 20.1 µM		1.0				
